# Laboratory results reported in paper PMC7547722, “A versatile soluble siglec scaffold for sensitive and quantitative detection of glycan ligands” (Nature Communications, 2020).
# Where “and” joins values, the source holds several entries; their conditions need not be identical. Equal entries are not always repeated.
# Experiments:
# U937 cells = assay: Flow cytometry, Siglec-Fc pre-complexed with Strep-Tactin, streptavidin or anti-human IgG1; assay type: cell-based; conditions: for Binding: Suppl Fig 4b
# Description: (§1) Strep-Tactin-AF647 (0.55 μg/mL, 0.57 pmol), streptavidin (Biolegend), or anti-human igG1 (Biolegend) was added to Siglec supernatant (50 μL) or purified Siglec and allowed to sit at 4 °C for 15 min. After, the pre-complexed solution was added to cells in a 96-well U-bottom plate for 30 min at 4 °C. After, 200 μL of flow buffer (HBSS, 0.1% BSA, 5 mM EDTA) was added and the plate was spun down at 300 rcf for 5 min. The cells were resuspended in 200 μL of flow buffer and processed through the flow cytometer.
# (§2) Flow cytometry was performed on a BD LSRFortessa™ X-20 cell analyzer using BD FACSDiva Software Version 8.0.1 and data was processed using FlowJo LLC. Version 9.9.6 and Graphpad Prism 8. The live, single cell populations were gated out with two gates to obtain the median fluorescence intensity (MFI), which indicates binding of the Siglec-Fc-secondary complex to the cell surface. Control cells that were incubated with Strep-Tactin-AF647 (0.55 μg/mL, 0.57 pmol) was used to determine the baseline fluorescence. Number of cells (# cells) plotted indicates percentage of max (% max).
# [1] = system: neutrophils (CD15+), human splenocytes; assay: Siglec-Fc (CD22-Fc V1/V2, with or without Fc receptor block) binding to splenocytes, flow cytometry; assay type: cell-based; conditions: Suppl Fig 12; three replicate columns
# Description: (§3) For human splenocytes, the sample was homogenized in media through a 40 µm filter (Corning) under sterile conditions. Samples were centrifuged at 300 rcf for 5 min. The resulting pellet from the spleen sample and whole human blood were treated with RBC lysis buffer (7 min) and centrifuged at 300 rcf and the RBC lysis was repeated twice more until no RBC remained in the pellet. Samples were treated with human Fc-receptor blocking agent (TruStain FX, Biolegend) in flow buffer (HBSS, 0.1% BSA, 5 mM EDTA). […]
# as §2, with “Version 9.9.6 and Graphpad Prism 8.” left out, “Number of cells (# cells) plotted indicates percentage of max (% max).” left out
# BT549 = assay: Flow cytometry, pre-complexed Siglec-Fc binding to breast cancer cell line; assay type: cell-based; conditions: Strep-Tactin-AF647, replicates
# Description: as §1, §2
# T47D = assay: as above; assay type: cell-based; conditions: Strep-Tactin-AF647, replicates
# Description: as §1, §2
# MDA-MB-231 = assay: as above; assay type: cell-based; conditions: Strep-Tactin-AF647, replicates
# Description: as §1, §2
# ZR-75-1 = assay: as above; assay type: cell-based; conditions: Strep-Tactin-AF647, replicates
# Description: as §1, §2
# MDA-MB-468 = assay: as above; assay type: cell-based; conditions: Strep-Tactin-AF647, replicates
# Description: as §1, §2
# MCF7 = assay: as above; assay type: cell-based; conditions: Strep-Tactin-AF647, replicates
# Description: as §1, §2
# HS578T = assay: as above; assay type: cell-based; conditions: Strep-Tactin-AF647, replicates
# Description: as §1, §2
# Jurkat cells = assay: Flow cytometry, pre-complexed Siglec-Fc binding; assay type: cell-based; conditions: Strep-Tactin-AF647, replicates
# Description: as §1, §2
# HEK293T cells = assay: Flow cytometry, pre-complexed Siglec-Fc binding; assay type: cell-based
# Description: as §1, §2
# HuH7 cells = assay: Flow cytometry, pre-complexed Siglec-Fc binding; assay type: cell-based; conditions: Strep-Tactin-AF647, replicates
# Description: as §1, §2
# A549 cells = assay: Flow cytometry, pre-complexed Siglec-Fc binding; assay type: cell-based; conditions: Strep-Tactin-AF647, replicates
# Description: as §1, §2
# K562 cells = assay: Flow cytometry, pre-complexed Siglec-Fc binding; assay type: cell-based; conditions: Strep-Tactin-AF647, replicates
# Description: as §1, §2
# T-cells (CD3+) = assay: Siglec ligands on peripheral blood immune cells, flow cytometry; assay type: cell-based, human; conditions: replicate values
# Description: (§4) For human splenocytes, the sample was homogenized in media through a 40 µm filter (Corning) under sterile conditions. Samples were centrifuged at 300 rcf for 5 min. The resulting pellet from the spleen sample and whole human blood were treated with RBC lysis buffer (7 min) and centrifuged at 300 rcf and the RBC lysis was repeated twice more until no RBC remained in the pellet. Samples were treated with human Fc-receptor blocking agent (TruStain FX, Biolegend) in flow buffer (HBSS, 0.1% BSA, 5 mM EDTA). For analysis, the following cocktail was used: hSig8 (PerCP/Cy5.5, clone 7C9, Biolegend cat. no. 347108, 1:200), hCD123 (PE/Cy7, clone 6H6, Biolegend cat. no. 306010, 1:200), hCD19 (PE, clone SJ25C1, Biolegend cat. no. 363004, 1:200), hCD3 (FITC, BD Pharmingen cat. no. 555332, 1:50), hCD14 (BV605, clone M5E2, BD Horizon cat. no. 564056, 1:200), hCD15 (BUV395, clone HI98, BD Horizon cat. no. 563872, 1:200), hCD56 (BV510, clone NCAM16.2, BD Horizon cat. no. 563041, 1:200). For human peripheral blood samples, we additionally used hHLA-DR (APC-Cy7, clone L243, Biolegend cat. no. 307618, 1:200). Pre-complexed Siglec-Fc/Strep-Tactin-AF647 (described above) was added to the antibody cocktail, added to cells, and allowed to stain at 4 °C for 45 min. The cells were then centrifuged at 300 rcf for 5 min and resuspended in flow buffer containing 1 µg/mL propidium iodide prior to analysis by flow cytometry.
# as §2
# B-cells (CD19+) = assay: as above; assay type: cell-based, human; conditions: replicate values
# Description: as §4, §2
# neutrophils (CD15+) = assay: as above; assay type: cell-based, human; conditions: replicate values
# Description: as §4, §2
# NK cells (CD56+) = assay: as above; assay type: cell-based, human; conditions: replicate values
# Description: as §4, §2
# cDCs (CD123dim/HLA-DR+) = assay: as above; assay type: cell-based, human; conditions: cDC; replicate values
# Description: as §4, §2
# pDCs (CD123high/HLA-DR+) = assay: as above; assay type: cell-based, human; conditions: pDC; replicate values
# Description: as §4, §2
# monocytes (CD14+) = assay: as above; assay type: cell-based, human; design: key: median fluorescence intensity (MFI) of Siglec-Fc complex binding; conditions: replicate values
# Description: (§5) Siglec supernatant (50 μL) or purified Siglec was incubated with cells in a 96-well U-bottom plate for 30 min at 4 °C. Following the incubation, 200 μL of flow buffer (HBSS, 0.1% BSA, 5 mM EDTA) was added and the plate was spun down at 300 rcf for 5 min. Strep-Tactin-AF647 (0.55 μg/mL, 50 μL, 0.57 pmol), streptavidin (Biolegend), or anti-human IgG1 (Biolegend) was added to the cells and incubated for 30 min at 4 °C. After, 200 μL of flow buffer (HBSS, 0.1% BSA, 5 mM EDTA) was added and the plate was spun down at 300 rcf for 5 min. The cells were resuspended in 200 μL of flow buffer and processed through the flow cytometer.
# as §1
# as §3, with “pellet.” for “pellet. Samples were treated with human Fc-receptor blocking agent (TruStain FX, Biolegend) in flow buffer (HBSS, 0.1% BSA, 5 mM EDTA).”
# as §2, with “Version 9.9.6 and Graphpad Prism 8.” left out, “Number of cells (# cells) plotted indicates percentage of max (% max).” left out
# eosinophils (Siglec-8+) = assay: as above; assay type: cell-based, human; design: key: median fluorescence intensity (MFI) of Siglec-Fc complex binding; conditions: replicate values
# Description: as §5, §1
# as §3, with “pellet.” for “pellet. Samples were treated with human Fc-receptor blocking agent (TruStain FX, Biolegend) in flow buffer (HBSS, 0.1% BSA, 5 mM EDTA).”
# as §2, with “Version 9.9.6 and Graphpad Prism 8.” left out, “Number of cells (# cells) plotted indicates percentage of max (% max).” left out
# basophils (CCR3+) = assay: as above; assay type: cell-based, human; design: key: median fluorescence intensity (MFI) of Siglec-Fc complex binding; conditions: replicate values
# Description: as §5, §1
# as §3, with “pellet.” for “pellet. Samples were treated with human Fc-receptor blocking agent (TruStain FX, Biolegend) in flow buffer (HBSS, 0.1% BSA, 5 mM EDTA).”
# as §2, with “Version 9.9.6 and Graphpad Prism 8.” left out, “Number of cells (# cells) plotted indicates percentage of max (% max).” left out
# [2] = system: B-cells (CD19+), human splenocytes; assay: Siglec-Fc binding to splenocytes, flow cytometry; assay type: cell-based; conditions: Suppl Fig 12; three replicate columns
# Description: as §4, §2
# [3] = system: NK cells (CD56+), human splenocytes; assay: Siglec-Fc binding to splenocytes, flow cytometry; assay type: cell-based; conditions: Suppl Fig 12; three replicate columns
# Description: as §4, §2
# [4] = system: monocytes (CD14+), human splenocytes; assay: Siglec-Fc binding to splenocytes, flow cytometry; assay type: cell-based; conditions: Suppl Fig 12; three replicate columns
# Description: as §4, §2
# [5] = system: T-cells (CD3+), human splenocytes; assay: Siglec-Fc binding to splenocytes, flow cytometry; assay type: cell-based; conditions: Suppl Fig 12; three replicate columns
# Description: as §4, §2
# [6] = system: K562 cells treated with Neuraminidase A; assay: Pre-complexed Siglec-Fc binding with or without Neu-A pretreatment; assay type: cell-based; conditions: Suppl Fig 7a
# Description: as §1, §2
# K562 cells were incubated with Neuraminidase A at 37 °C for 30 min with shaking every 5 min. Cells were then added to a 96-well U-bottom plate and incubated with pre-complexed Strep-Tactin-AF647/Siglec, as described above.
# CMAS−/− HEK293 cells = assay: Pre-complexed Siglec-Fc binding to sialic acid-deficient cells; assay type: cell-based; conditions: Suppl Fig 7b; HEK CMASKO
# Description: Custom crRNA (IDT) was designed to target human CMAS ([…]) and ST6Gal1 ([…]). Cells were seeded at 500,000 cells per well 1 day prior to transfection in a 6-well tissue culture plate. For one well of a 6-well plate, 20 pmol of Cas9 nuclease (IDT), 20 pmol of ATTO-550 labeled crRNA:tracrRNA (IDT) duplex, 8 μL Cas9 Plus reagent (IDT), and 16 μL CRISPRMAX reagent (Thermo Fisher) in 600 μL Opti-MEM medium (Gibco). One day after transfection, cells were removed from the plate by trypsin digestion, washed, resuspended in 300 μl of cell sorting medium (HBSS, 10% FBS, 1 mM EDTA), and stored on ice until sorting. Cells were sorted within the University of Alberta Flow Cytometry Core. The top 5% bright dyes stained with ATTO-550 were sorted into three 96-well plates containing regular culture medium at one cell per well. […]
# as §2, with “Version 9.9.6 and Graphpad Prism 8.” left out, “Number of cells (# cells) plotted indicates percentage of max (% max).” left out
# Strep-tag II = conditions: cited from earlier work
substance,measurement,setting,value
Sig-1-Fc R116A,Binding,U937 cells; Amount of Siglec 3.75 ug/mL,54.5 and 53.7 and 57.1
same,Binding,U937 cells; Amount of Siglec 7.5 ug/mL,57.9 and 62.1 and 64.6
same,Binding,U937 cells; Amount of Siglec 15 ug/mL,67.9 and 72.2 and 70.4
same,Binding,U937 cells; Amount of Siglec 30 ug/mL,133 and 128 and 148
same,Binding,U937 cells; Amount of Siglec 60 ug/mL,157 and 165 and 148
Sig-8 R128A: Siglec-8-Fc essential arginine mutant,"Binding, Neutrophils",[1],-13.8 and -28.2 and -29.9
same,binding of pre-complexed Siglec-Fc (MFI),BT549,101 and 105 (2×)
same,binding of pre-complexed Siglec-Fc (MFI),T47D,86.1 and 97.6 and 94.1
same,binding of pre-complexed Siglec-Fc (MFI),MDA-MB-231,154 (2×) and 157
same,binding of pre-complexed Siglec-Fc (MFI),ZR-75-1,269 and 266 and 255
same,binding of pre-complexed Siglec-Fc (MFI),MDA-MB-468,125 and 126 and 131
same,binding of pre-complexed Siglec-Fc (MFI),MCF7,129 (2×) and 126
same,binding of pre-complexed Siglec-Fc (MFI),HS578T,127 and 117 and 114
same,binding of pre-complexed Siglec-Fc (MFI),Jurkat cells,80.5 and 89.6 and 88.9
same,binding of pre-complexed Siglec-Fc (MFI),"HEK293T cells; HEK, Strep-Tactin-AF647, replicates",70.7 and 73.5 (2×)
same,binding of pre-complexed Siglec-Fc (MFI),HuH7 cells,92.2 and 88.8 and 95.7
same,binding of pre-complexed Siglec-Fc (MFI),A549 cells,123 and 130 and 127
same,binding of pre-complexed Siglec-Fc (MFI),K562 cells,133 and 120 and 116
same,Siglec-Fc binding (Figure 3d),T-cells (CD3+),20.5 and 10.3 and 64.2
same,Siglec-Fc binding (Figure 3d),B-cells (CD19+),41.1 and 12.5 and 42.1
same,Siglec-Fc binding (Figure 3d),neutrophils (CD15+),38.5 and 12.4 and 5.83
same,Siglec-Fc binding (Figure 3d),NK cells (CD56+),32.1 and 46.5 and 41.2
same,Siglec-Fc binding (Figure 3d),cDCs (CD123dim/HLA-DR+),60.4 and -24.4 and 18
same,Siglec-Fc binding (Figure 3d),pDCs (CD123high/HLA-DR+),74.5 and 11.6 and 48.8
same,binding of pre-complexed Siglec-Fc (MFI),"U937 cells; U937, Strep-Tactin-AF647, replicates, Fig. 2",94.6 and 90.4 and 92.5
same,Siglec-Fc binding (Figure 3d),monocytes (CD14+),97.7 and 42.1 and 63.5
same,Siglec-Fc binding (Figure 3d),eosinophils (Siglec-8+),25.7 and 26.1 and 45
same,Siglec-Fc binding (Figure 3d),basophils (CCR3+),38.5 and 41.6 and 74.4
same,"Binding, B-cells",[2],3.45 and -1.72 and -2.87
same,"Binding, NK",[3],4.43 and 1.18 and 2.36
same,"Binding, Monocytes",[4],15.5 and 9.76 and 8.04
same,"Binding, T-cells",[5],6.21 and 2.36 and 4.73
Siglec-2,Binding,[6]; +Neuraminidase,88.8 and 91.5 and 90.6
same,Binding,[6]; -Neuraminidase,2128 and 1497 and 1576
same,Binding,CMAS−/− HEK293 cells,86 and 84.2
same,Binding,"HEK293T cells; Suppl Fig 7b, HEK WT",631 and 654 and 721
Streptavidin: protein binding Strep-tag II with intermediate affinity [reference compound],Kd,Strep-tag II,72 µM
same,Siglec-1-Fc Binding,"U937 cells; Suppl Fig 4a, Streptavidin alone",150 and 128 and 134
